Measurements as given in US20050209278A1, “Piperidinyl- and piperazinyl-sulfonylmethyl hydroxamic acids and their use as protease inhibitors” (priority 2002, published 2005).

Columns and labels:
[1] = target: T1, MMP-2 (Homo sapiens, UniProt P08253); assay: In vitro MMP inhibition, Ki determination (fluorogenic substrate II); assay type: biochemical; settings: value not in parenthesis; read-out: MMP-2 Ki
T1 construct: made in house; host or cells: MMP-2-transfected p2AHT2 cells
T1 sequence (P08253 110-660): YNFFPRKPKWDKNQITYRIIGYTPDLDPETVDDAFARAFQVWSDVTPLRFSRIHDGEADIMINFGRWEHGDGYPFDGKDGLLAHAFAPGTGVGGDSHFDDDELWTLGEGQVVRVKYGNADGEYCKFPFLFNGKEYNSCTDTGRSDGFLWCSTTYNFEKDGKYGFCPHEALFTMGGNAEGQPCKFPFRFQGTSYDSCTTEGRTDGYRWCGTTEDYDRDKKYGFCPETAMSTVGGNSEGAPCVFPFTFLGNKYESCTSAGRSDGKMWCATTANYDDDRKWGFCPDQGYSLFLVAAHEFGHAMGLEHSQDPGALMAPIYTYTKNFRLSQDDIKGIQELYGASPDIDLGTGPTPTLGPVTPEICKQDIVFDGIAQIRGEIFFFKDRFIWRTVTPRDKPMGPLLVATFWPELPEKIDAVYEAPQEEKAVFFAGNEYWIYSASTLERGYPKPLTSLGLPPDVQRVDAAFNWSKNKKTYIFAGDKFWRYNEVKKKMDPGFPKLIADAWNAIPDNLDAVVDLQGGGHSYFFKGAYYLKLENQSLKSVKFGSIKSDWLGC

[2] = target: T2, MMP-9 (Homo sapiens, UniProt P14780); assay: as above; assay type: biochemical; settings: value not in parenthesis
T2 construct: made in house; host or cells: MMP-9-transfected HT1080 cells (spent media)
Procedure, shortened: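 HT1080-derived MMP-9, activated with APMA, trypsin or MMP-3, incubated 1 hr at room temperature with inhibitor and 4 μM fluorogenic substrate II (at or below Km) in pH 7.5 Tris/NaCl/CaCl2 buffer; ex 330/em 420 nm. Ki from Morrison-equation regression, without substrate correction.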

T2 sequence (P14780 107-707 limits assumed): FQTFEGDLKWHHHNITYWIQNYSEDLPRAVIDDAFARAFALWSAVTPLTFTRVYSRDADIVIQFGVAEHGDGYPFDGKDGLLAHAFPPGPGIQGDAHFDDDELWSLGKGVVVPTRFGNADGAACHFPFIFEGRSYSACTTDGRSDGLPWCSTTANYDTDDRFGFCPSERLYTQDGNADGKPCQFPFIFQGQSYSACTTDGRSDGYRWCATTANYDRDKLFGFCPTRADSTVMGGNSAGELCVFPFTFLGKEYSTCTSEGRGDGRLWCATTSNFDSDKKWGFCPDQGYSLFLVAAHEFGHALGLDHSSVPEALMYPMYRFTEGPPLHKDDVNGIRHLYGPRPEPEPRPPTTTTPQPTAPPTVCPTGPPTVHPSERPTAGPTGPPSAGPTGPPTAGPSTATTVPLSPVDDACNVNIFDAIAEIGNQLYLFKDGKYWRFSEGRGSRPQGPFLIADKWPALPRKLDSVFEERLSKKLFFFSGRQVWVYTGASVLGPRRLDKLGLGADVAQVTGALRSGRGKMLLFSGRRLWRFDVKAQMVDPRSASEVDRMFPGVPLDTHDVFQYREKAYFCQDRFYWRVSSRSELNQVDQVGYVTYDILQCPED

| Compound | Ki [1] [nM] | Ki [2] [nM] |
| --- | --- | --- |
| COc1ccc(-c2ccc(N3CCN(S(=O)(=O)C4(C(=O)NO)CCOCC4)CC3)nc2)cc1 [Example 61] | 0.39 | 12.3 |
| O=C(NO)C1(S(=O)(=O)N2CCN(c3ccc(OC(F)(F)C(F)F)cc3)CC2)CCSCC1 [Example 62] | 0.22 | 1.5 |
| CCCCOc1ccc(N2CCN(S(=O)(=O)C3(C(=O)NO)CC3)CC2)cc1 [Example 63] | 6.77 | 7.71 |
| CCCCOc1ccc(N2CCN(S(=O)(=O)C3(C(=O)NO)CCN(c4ccc(OC(F)(F)C(F)F)cc4)CC3)CC2)cc1 [Example 65] | 23.6 | 128 |
| O=C(NO)C1(S(=O)(=O)N2CCN(c3ccc4c(c3)OC(F)(F)C(F)(F)O4)CC2)CCOCC1 [Example 67] | 50.5 | 1380 |
| O=C(NO)C1(S(=O)(=O)N2CCN(c3ccc(COCC(F)(F)C(F)(F)F)cc3)CC2)CCOCC1 [Example 70] | 2.57 | 49.7 |
| CCCCOc1ccc(N2CCN(S(=O)(=O)C3(C(=O)NO)CCN(C(=O)c4ccco4)CC3)CC2)cc1 [Example 156] | 0.75 | 1.2 |
| CCCCOc1ccc(N2CCN(S(=O)(=O)C3(C(=O)NO)CCN(c4nccs4)CC3)CC2)cc1 [Example 157] | 1.47 | 4.28 |
| CCCCOc1ccc(N2CCN(S(=O)(=O)C3(C(=O)NO)CCN(c4ncccn4)CC3)CC2)cc1 [Example 159] | 0.702 | 1.93 |
| CCCCOc1ccc(N2CCN(S(=O)(=O)C3(C(=O)NO)CCN(C(=O)c4cccs4)CC3)CC2)cc1 [Example 160] | 0.599 | 1.79 |
| Cc1ccc(N2CCC(C(=O)NO)(S(=O)(=O)N3CCN(c4ccc(OCCCC(F)(F)F)cc4)CC3)CC2)cc1 [Example 161] | 8.26 | 134 |
| O=C(NO)C1(S(=O)(=O)N2CCN(c3ccc(OCCN4CCCC4)cc3)CC2)CCOCC1 [Example 162] | 18.4 | 402 |
| CCCCOc1ccc(N2CCN(S(=O)(=O)C3(C(=O)NO)CCN(CCOC)CC3)CC2)cn1 [Example 164] | 28.6 | 7.53 |
| CCCCOc1c(F)cc(N2CCN(S(=O)(=O)C3(C(=O)NO)CCN(CCOC)CC3)CC2)cc1F [Example 165] | 0.49 | 14.7 |
| COCCN1CCC(C(=O)NO)(S(=O)(=O)N2CCN(c3ccc(OCC(C)C)c(F)c3)CC2)CC1 [Example 166] | 0.72 | 2.22 |
| CCCCCc1ccc(N2CCN(S(=O)(=O)C3(C(=O)NO)CCOCC3)CC2)nc1 [Example 167] | 0.11 | 0.2 |
| O=C(NO)C1(S(=O)(=O)N2CCN(c3ccccn3)CC2)CCOCC1 [Example 169] | 1.09 | 4.99 |
| O=C(NO)C1(S(=O)(=O)N2CCN(c3ccc(SC(F)(F)F)cc3)CC2)CCOCC1 [Example 170] | 0.24 | 17.1 |
| CCCc1ccc(N2CCN(S(=O)(=O)C3(C(=O)NO)CCN(c4ccc(C)cc4)CC3)CC2)cc1 [Example 171] | 6.82 | 6.91 |
| CCCCc1ccc(N2CCN(S(=O)(=O)C3(C(=O)NO)CCN(CCOC)CC3)CC2)cc1F [Example 173] | 0.209 | 0.149 |

| Compound | Ki [1] [nM] | Ki [2] [nM] |
| --- | --- | --- |
| COCCN1CCC(C(=O)NO)(S(=O)(=O)N2CCN(c3ccc(C(C)=O)cc3)CC2)CC1 [Example 174] | 2.13 | 28.9 |
| CCCNC(=O)c1ccc(N2CCN(S(=O)(=O)C3(C(=O)NO)CCN(CCOC)CC3)CC2)cc1 [Example 175] | 46.9 | 440 |
| COCCN1CCC(C(=O)NO)(S(=O)(=O)N2CCN(c3ccccn3)CC2)CC1 [Example 176] | 1.59 | 9.63 |
| CCCCC(=O)c1ccc(N2CCN(S(=O)(=O)C3(C(=O)NO)CCN(CCOC)CC3)CC2)cc1 [Example 177] | 2.33 | 18.6 |
| CCCc1cnc(N2CCN(S(=O)(=O)C3(C(=O)NO)CCN(CCOC)CC3)CC2)nc1 [Example 178] | 7.88 | 2.23 |
| CCCC(C)Cc1ccc(N2CCN(S(=O)(=O)C3(C(=O)NO)CCN(CCOC)CC3)CC2)cc1 (centres unmarked) [Example 189] | 9.78 | 34.7 |
| CCC(C)Cc1ccc(N2CCN(S(=O)(=O)C3(C(=O)NO)CCN(CCOC)CC3)CC2)cc1 (centres unmarked) [Example 190] | 1.49 | 3.76 |
| COCCN1CCC(C(=O)NO)(S(=O)(=O)N2CCN(c3ccc(CCCCC(C)C)cc3)CC2)CC1 [Example 191] | 0.986 | 4.21 |
| COCCN1CCC(C(=O)NO)(S(=O)(=O)N2CCN(c3ccc(CC(C)C)cc3)CC2)CC1 [Example 192] | 1.9 | 9.11 |
| CCc1ccc(N2CCN(S(=O)(=O)C3(C(=O)NO)CCN(CCOC)CC3)CC2)cc1 [Example 193] | 1.21 | 3.11 |
| COCCN1CCC(C(=O)NO)(S(=O)(=O)N2CCN(c3ccc(C)cc3)CC2)CC1 [Example 194] | 1.74 | 7.19 |
| COCCN1CCC(C(=O)NO)(S(=O)(=O)N2CCN(c3ccccc3)CC2)CC1 [Example 195] | 6.17 | 23.2 |
| COCCN1CCC(C(=O)NO)(S(=O)(=O)N2CCN(c3nc4ccccc4o3)CC2)CC1 [Example 196] | 25.1 | 79.6 |
| CCCCCc1ccc(N2CCN(S(=O)(=O)C3(C(=O)NO)CCOCC3)CC2)nn1 [Example 197] | 5.78 | 20.2 |
| O=C(NO)C1(S(=O)(=O)N2CCN(c3ccc(Cl)nn3)CC2)CCOCC1 [Example 198] | 8.28 | 252 |
| CCCCCCc1ccc(N2CCN(S(=O)(=O)C3(C(=O)NO)CCN(CCOC)CC3)CC2)cc1 [Example 199] | 0.633 | 0.892 |
| CCCc1ccc(N2CCN(S(=O)(=O)C3(C(=O)NO)CCN(CCOC)CC3)CC2)cc1 [Example 200] | 0.524 | 0.28 |
| COCCN1CCC(C(=O)NO)(S(=O)(=O)N2CCN(c3ccc(Br)cc3)CC2)CC1 [Example 201] | 0.521 | 3.48 |
| COCCN1CCC(C(=O)NO)(S(=O)(=O)N2CCN(c3ccc(OC(F)(F)F)cc3)CC2)CC1 [Example 202] | 0.432 | 4.67 |
| O=C(NO)C1(S(=O)(=O)N2CCN(c3ccc(OC(F)(F)F)cc3)CC2)CCN(C2CC2)CC1 [Example 203] | 0.28 | 2.5 |

| Compound | Ki [1] [nM] | Ki [2] [nM] |
| --- | --- | --- |
| CCCCCc1ccc(N2CCN(S(=O)(=O)C3(C(=O)NO)CCN(S(N)(=O)=O)CC3)CC2)cc1 [Example 205] | 2.03 | 248 |
| CCCCCc1ccc(N2CCN(S(=O)(=O)C3(C(=O)NO)CCN(C(=O)CC)CC3)CC2)cc1 [Example 206] | 0.63 | 0.62 |
| Cc1ccc(-c2ccc(N3CCN(S(=O)(=O)C4(C(=O)NO)CCOCC4)CC3)cc2)cc1 [Example 207] | 2.02 | 12.3 |
| O=C(NO)C1(S(=O)(=O)N2CCN(c3ccc(-c4ccc(F)cc4)cc3)CC2)CCOCC1 [Example 208] | 0.24 | 0.7 |
| O=C(NO)C1(S(=O)(=O)N2CCN(c3cnc(CCCC(F)(F)F)cn3)CC2)CCOCC1 [Example 209] | 3.79 | 157 |
| O=C(NO)C1(S(=O)(=O)N2CCN(c3cnc(CCC(F)(F)C(F)(F)F)cn3)CC2)CCOCC1 [Example 210] | 1.04 | 141 |
| O=C(NO)C1(S(=O)(=O)N2CCN(c3ccc(OCC(F)(F)C(F)(F)F)cc3)CC2)CCOCC1 [Example 212] | 0.54 | 2.91 |
| CC(C)Cc1ccc(N2CCN(S(=O)(=O)C3(C(=O)NO)CCOCC3)CC2)c(F)c1 [Example 213] | 12.6 | 82.4 |
| CCCCc1nnc(N2CCN(S(=O)(=O)C3(C(=O)NO)CCOCC3)CC2)s1 [Example 214] | 102 | 220 |
| O=C(NO)C1(S(=O)(=O)N2CCN(c3nncs3)CC2)CCOCC1 [Example 215] | 2370 | > 10000 |
| CCCc1nnc(N2CCN(S(=O)(=O)C3(C(=O)NO)CCOCC3)CC2)s1 [Example 216] | 214 | 596 |
| CCCCc1ccc(N2CCN(S(=O)(=O)C(C)C(=O)NO)CC2)nc1 (centres unmarked) [Example 217] | 0.29 | 0.45 |
| O=C(NO)C1(S(=O)(=O)N2CCN(c3cnc(CCC(F)(F)F)cn3)CC2)CCOCC1 [Example 218] | 1.39 | 2.29 |
| CCCCCc1cnc(N2CCN(S(=O)(=O)C3(C(=O)NO)CCOCC3)CC2)cn1 [Example 219] | 2.5 | 0.46 |
| CCCCOc1ccc(N2CCN(S(=O)(=O)C3(C(=O)NO)CCN(c4ccc5c(c4)OCO5)CC3)CC2)cc1 [Example 221] | 8.53 | 14.6 |
| CCCCOc1ccc(N2CCN(S(=O)(=O)C3(C(=O)NO)CCS(=O)(=O)CC3)CC2)cc1 [Example 222] | 7.88 | 21.5 |
| CCCCOc1ccc(N2CCN(S(=O)(=O)C3(C(=O)NO)CCN(c4ccsc4)CC3)CC2)cc1 [Example 223] | 3.46 | 66.1 |
| CCCCOc1ccc(N2CCN(S(=O)(=O)C3(C(=O)NO)CCN(c4ccc(C#N)cc4)CC3)CC2)cc1 [Example 225] | 9.28 | 28.1 |
